Measurements published in US7491827B2, “Aryl sulfonamides useful as inhibitors of chemokine receptor activity” (Millennium Pharmaceuticals, Inc., priority 2003, dated 2009).
pKi: −log10 of the molar value.

target: T1, cloned human CCR8 receptor stably expressed in L1.2 cells (Homo sapiens, UniProt P51685); test: whole cell binding screen: inhibition of biotinylated human I309 binding to CCR8 (FMAT 8100 HTS); conditions: Ki of compounds to inhibit I-309 binding to CCR8, L1.2/hCCR8 cells, biotinylated human I-309, 10 point concentration response starting at 10 μM
T1 construct: expressed in transfected cells
T1 sequence (P51685 whole entry): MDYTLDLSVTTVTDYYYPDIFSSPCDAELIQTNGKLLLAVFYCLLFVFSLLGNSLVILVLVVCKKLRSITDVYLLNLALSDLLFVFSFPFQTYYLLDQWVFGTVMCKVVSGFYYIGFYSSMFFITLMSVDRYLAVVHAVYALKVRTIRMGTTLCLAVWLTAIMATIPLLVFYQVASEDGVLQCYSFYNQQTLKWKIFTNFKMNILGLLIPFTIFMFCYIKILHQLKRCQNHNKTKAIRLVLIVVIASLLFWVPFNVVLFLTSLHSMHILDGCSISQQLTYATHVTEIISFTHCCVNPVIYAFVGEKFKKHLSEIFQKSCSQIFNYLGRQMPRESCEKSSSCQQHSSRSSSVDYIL
Procedure, shortened: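 L1.2 murine pre-B cells stably expressing human CCR8 (4.0×10^5 cells/mL) in HBSS/HEPES/fatty-acid-free BSA/azide buffer were mixed with biotinylated human I309 and compounds for 0.5 h, read by FMAT fluorescence. 10-point curves from 10 μM final; percent inhibition normalized to no-inhibitor and 100 nM unlabeled I309 controls.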

| Compound | pKi |
| --- | --- |
| CCOC(=O)N1CCC(NS(=O)(=O)c2ccc(C(=O)Nc3ccccc3C)c3ccccc23)CC1 [Compound F-11, 4-(4-o-Tolylcarbamoyl-naphthalene-1-sulfonylamino)-piperidine-1-carboxylic acid ethyl ester] | > 6.30 |
| CCOC(=O)N1CCC(NS(=O)(=O)c2ccc(NC(=O)c3ccccc3)c3ccccc23)CC1 [Compound A-34, 4-(4-Benzoylamino-naphthalene-1-sulfonylamino)-piperidine-1-carboxylic acid ethyl ester] | > 4.52 |
| CCCC(=O)N1CCC(NS(=O)(=O)c2ccc(NC(=O)C3CCCCC3)c3ccccc23)CC1 [Compound D-16, Cyclohexanecarboxylic acid [4-(1-butyryl-piperidin-4-ylsulfamoyl)-naphthalen-1-yl]-amide] | > 6.30 |
| CC(=O)N1CCC(NS(=O)(=O)c2ccc(NC(=O)c3ccccc3C)c3ccccc23)CC1 [Compound C-49, N-[4-(1-Acetyl-piperidin-4-ylsulfamoyl)-naphthalen-1-yl]-2-methyl-benzamide] | > 6.30 |

same assay, conditions: L1.2/hCCR8 cells, biotinylated human I-309, 10 point concentration response starting at 10 μM; read-out: Ki of compounds to inhibit I-309 binding to CCR8

| Compound | pKi |
| --- | --- |
| CCOC(=O)N1CCC(NS(=O)(=O)c2cccc3c(NC(=O)N4CCOCC4)cccc23)CC1 [Compound H-17, 4-{5-[(Morpholine-4-carbonyl)-amino]-naphthalene-1-sulfonylamino}-piperidine-1-carboxylic acid ethyl ester] | > 6.00 |
| CCc1ccc(NS(=O)(=O)c2cccc3c(NC(=O)c4ccccc4)cccc23)cc1 [Compound H-2, N-[5-(4-Ethyl-phenylsulfamoyl)-naphthalen-1-yl]-benzamide] | > 4.52 |
| CCOC(=O)[C@@H]1CNCC[C@@H]1NS(=O)(=O)c1ccc(NC(=O)c2ccccc2C)c2ccccc12 [Compound J-55] | > 5.30 |
| CC(C)c1ccc(NS(=O)(=O)c2ccc3cccc(NC(=O)c4ccccc4)c3c2)cc1 [Compound H-50, N-[7-(4-Isopropyl-phenylsuffamoyl)-naphthalen-1-yl]-benzamide] | > 4.52 |
| COc1ccc(NS(=O)(=O)c2ccc(NC(=O)c3ccc([N+](=O)[O-])cc3)c3ccccc23)cc1 [Compound B-3, N-[4-(4-Methoxy-phenylsulfamoyl)-naphthalen-1-yl]-4-nitro-benzamide] | > 4.52 |
| COc1ccc(NS(=O)(=O)c2ccc(NC(=O)c3ccccc3OC)c3ccccc23)cc1 [Compound B-6, 2-Methoxy-N-[4-(4-methoxy-phenylsulfamoyl)-naphthalen-1-yl]-benzamide] | > 4.52 |
| Cc1ccccc1C(=O)Nc1ccc(S(=O)(=O)NCCCN2CCCC2=O)c2c1CCCC2 [Compound E-24, 2-Methyl-N-{4-[3-(2-oxo-pyrrolidin-1-yl)-propylsulfamoyl]-5,6,7,8-tetrahydro-naphthalen-1-yl}-benzamide] | > 6.00 |
| O=C(Nc1ccc(S(=O)(=O)NC2CCCC2)c2ccccc12)c1ccccc1 [Compound A-35, N-(4-Cyclopentysulfamoyl-naphthalen-1-yl)-benzamide] | > 6.30 |
| Cc1ccccc1C(=O)Nc1ccc(S(=O)(=O)N[C@@H]2CCN(C(=O)CN3CCOCC3)C[C@@H]2C)c2ccccc12 (racemic) [Compound C-145, (±)-2-Methyl-N-{4-[3-cis-methyl-1-(2-morpholin-4-yl-acetyl)-piperidin-4-ylsulfamoyl]-naphthalen-1-yl}-benzamide] | > 6.00 |
| CCOC(=O)[C@H]1CN(C(=O)OCC)CC[C@@H]1NS(=O)(=O)c1ccc(NC(=O)c2ccccc2C)c2ccccc12 (racemic) [Compound C-79, (±)-(trans)-4-[4-(2-Methyl-benzoylamino)-naphthalene-1-sulfonylamino]-piperidine-1,3-dicarboxylic acid diethyl ester] | > 4.52 |

Continued, values first:

| pKi | Compound |
| --- | --- |
| > 6.30 | CCCC(=O)N1CCC(NS(=O)(=O)c2ccc(NC(=O)c3ccccc3C)c3c2CCC3)CC1 [Compound H-65, N-[7-(1-Butyryl-piperidin-4-ylsulfamoyl)-indan-4-yl]-2-methyl-benzamide] |
| > 6.30 | Cc1ccccc1C(=O)Nc1ccc(S(=O)(=O)N[C@H]2CCN(C(=O)[C@@H](C)N)C[C@H]2C)c2ccccc12 [Compound J-6, (3R, 4S)-N-{4-[1-(2-(R)-Amno-propionyl)-3-methyl-piperidin-4-ylsulfamoyl]-naphthalen-1-yl}-2-methyl-benzamide] |
| > 6.30 | Cc1ccccc1C(=O)Nc1ccc(S(=O)(=O)NC2CCN(C(=O)CN(C)C)CC2)c2c1CCCC2 [Compound E-17, N-{4-[1-(2-Dimethylandno-acetl)-piperidin-4-ylsulfamoyl]-5,6,7,8-tetrahydro-naphthalen-1-yl}-2-methyl-benzamide] |
| > 6.30 | CCOC(=O)N1CCC(NS(=O)(=O)c2cccc3c(C(=O)NC4CCCC(C)C4C)cccc23)CC1 (racemic) [Compound H-30, (±)-4-[5-(2,3-Dimethyl-cyclohexylcarbamoyl)-naphthalene-1-sulfonylamino]-piperidine-1-carboxylic acid ethyl ester] |
| > 6.30 | CCOC(=O)N1CCC(NS(=O)(=O)c2ccc(CNCc3ccccc3)c3ccccc23)CC1 [Compound G-32, 4-[4-(Benzylamino-methyl)-naphthalene-1-sulfonylamino]-piperidine-1-carboxylic acid ethyl ester] |
| > 6.30 | O=C(Nc1ccc(S(=O)(=O)NC2CCNCC2)c2ccccc12)C1CCCCC1 [Compound D-14, Cyclohexanecarboxylic acid [4-(piperidin-4-ylsulfamoyl)-naphthalen-1-yl]-amide] |
| > 6.30 | Cc1ccccc1C(=O)Nc1ccc(S(=O)(=O)NC2CCN(C(=O)OC(C)C)CC2)c2c1CCC2 [Compound H-70, 4-[7-(2-Methyl-benzoylamino)-indane-4-sulfonylamino]-piperidine-1-carboxylic acid isopropyl ester] |
| > 6.30 | O=C(Nc1ccc(S(=O)(=O)NC2CCNCC2)c2ccccc12)c1ccccc1F [Compound C-99, 2-Fluoro-N-[4-(piperidin-4-ylsulfamoyl)-naphthalen-1-yl]-benzamide] |
| > 6.30 | CCOC(=O)N1CCC(C)(NS(=O)(=O)c2ccc(NC(=O)c3ccccc3C)c3ccccc23)CC1 [Compound C-25, 4-Methyl-4-[4-(2-methyl-benzoylamino)-naphthalene-1-sulfonylamino]-piperidine-1-carboxylic acid ethyl ester] |
| > 6.30 | Cc1ccccc1NC(=O)c1ccc(S(=O)(=O)NC2CCN(C(=O)N(C)C)CC2)c2ccccc12 [Compound F-12, 4-(4-o-Tolylcarbamoyl-naphthalene-1-sulfonylamino)-piperidine-1-carboxylic acid dimethylamide] |
| > 6.30 | O=C(Nc1cc(S(=O)(=O)NC2CCCCC2)cc2c1CCCC2)c1ccccc1 [Compound H-54, N-(3-Cyclohexylsulfamoyl-5,6,7,8-tetrahydro-naphthalen-1-yI)-benzamide] |
| > 6.30 | CCOC(=O)N1CCC(NS(=O)(=O)c2ccc(CNCc3ccc(Cl)cc3)c3ccccc23)CC1 [Compound G-7, 4-{4-[(4-Chloro-benzylamino)-methyl]-naphthalene-1-sulfonylamino}-piperidine-1-carboxylic acid ethyl ester] |
| > 6.30 | CCC(=O)N1CCC(NS(=O)(=O)c2ccc(NC(=O)c3ccccc3OC)c3ccccc23)CC1 [Compound C-102, 2-Methoxy-N-[4-(1-propionyl-piperidin-4-ylsulfamoyl)-naphthalen-1-yl]-benzamide] |
